Laboratory results reported in patent US5292742A, “Angiotensin II receptor blocking 2,3,6 substituted quinazolinones” (American Cyanamid Company, priority 1993, dated 1994).
“And” between values parts separate entries of the source, which are not always exact repeats. Equal values may be shown once.

Tested on: angiotensin II (AII) vasopressor response
Assay: AII challenge: inhibition of angiotensin II vasopressor response in conscious spontaneously hypertensive rats
Format: in vivo, rat (Okamoto-Aoki SHR)
Settings: 3 mg/kg IV; for % Inhibition (angiotensin blockage) of AII vasopressor response / Average Change (increase in systolic blood pressure after AII): SHR n = 2; for Change (increase in systolic blood pressure after AII), individual rat / Response After AII (systolic blood pressure), individual rat / Control Before AII (systolic blood pressure), individual rat: individual SHR
Text: By administering a compound of this invention to a rat, and then challenging with angiotensin II, a blockage of the vasopressor response is realized.
Conscious Male Okamoto-Aoki SHR, 16-20 weeks old, weighing approximately 330 g are purchased from Charles River Labs (Wilmington, Mass.). Conscious rats are restrained in a supine position with elastic tape. The area at the base of the tail is locally anesthetized by subcutaneous infiltration with 2% procaine. The ventral caudal artery and vein are isolated, and a cannula made of polyethylene (PE) 10-20 tubing (fused together by heat) is passed into the lower abdominal aorta and vena cava, respectively. The cannula is secured, heparinized (1,000 I.U./ml), sealed and the wound is closed. The animals are placed in plastio restraininq cages in an upright position. The cannula is attached to a Statham P23Db pressure transducer, and pulsatile blood pressure is recorded to 10-15 minutes with a Gould Brush recorder. (Chan et al., (Drug Development Res., 18:75-94, 1989).
Angiotensin II (human sequence, Sigma Chem. Co., St. Louis, Mo.) of 0.05 and 0.1 mcg/kg i.v. is injected into all rats (predosing response). Then a test compound, vehicle or a known angiotensin II antagonist is administered i.v., i.p. or orally to each set of rats. The two doses of angiotensin II are given to each rat again at 30, 60, 90, 120, 180, 240 and 300 minutes post dosing the compound or vehicle. The vasopressor response of angiotensin II is measured for the increase in systolic blood pressure in mmHg. The percentage of antagonism or blockade of the vasopressor response of angiotensin II by a compound is calculated using the vasopressor response (increase in systolic blood pressure) of angiotensin II of each rat predosing the compound as 100%. A compound is considered active if at 30 mg/kg i.v. it antagonized at least 50% of the response.

[1] = AII 0.05 mcg/kg IV, 30 min post dose
[2] = AII 0.05 mcg/kg IV, 60 min post dose
[3] = AII 0.05 mcg/kg IV, 90 min post dose
[4] = AII 0.05 mcg/kg IV, 120 min post dose
[5] = AII 0.05 mcg/kg IV, 180 min post dose
[6] = AII 0.05 mcg/kg IV, 240 min post dose
[7] = AII 0.05 mcg/kg IV, 300 min post dose
[8] = AII 0.1 mcg/kg IV, 30 min post dose
[9] = AII 0.1 mcg/kg IV, 60 min post dose
[10] = AII 0.1 mcg/kg IV, 90 min post dose
[11] = AII 0.1 mcg/kg IV, 120 min post dose
[12] = AII 0.1 mcg/kg IV, 180 min post dose
[13] = AII 0.1 mcg/kg IV, 240 min post dose
[14] = AII 0.1 mcg/kg IV, 300 min post dose

In the case of CCCCc1nc2ccc(C3=NN4CCCCC4C3)cc2c(=O)n1Cc1ccc(-c2ccccc2-c2nnn[nH]2)cc1 (stereo not shown) [Example 11], the “% Inhibition (angiotensin blockage) of AII vasopressor response” value (“% Inhibition (angiotensin blockage)” below) [1] is reported as 82%, the “Average Change (increase in systolic blood pressure after AII)” value [1] is reported as 7.5 mmHg and the “Change (increase in systolic blood pressure after AII), individual rat” value [1] is reported as 10 mmHg and 5 mmHg. The “% Inhibition (angiotensin blockage)” value [2] was 59%, the “Average Change (increase in systolic blood pressure after AII)” value [2] was 17.5 mmHg and the “Change (increase in systolic blood pressure after AII), individual rat” value [2] was 20 mmHg and 15 mmHg. For the same molecule, the “% Inhibition (angiotensin blockage)” value [3] was 65%, the “Average Change (increase in systolic blood pressure after AII)” value [3] was 15 mmHg and the “Change (increase in systolic blood pressure after AII), individual rat” value [3] was 15 mmHg. For the same molecule, the “% Inhibition (angiotensin blockage)” value [4] was 59%, the “Average Change (increase in systolic blood pressure after AII)” value [4] was 17.5 mmHg and the “Change (increase in systolic blood pressure after AII), individual rat” value [4] was 20 mmHg and 15 mmHg. The “% Inhibition (angiotensin blockage)” value [5] was 59%, the “Average Change (increase in systolic blood pressure after AII)” value [5] was 17.5 mmHg and the “Change (increase in systolic blood pressure after AII), individual rat” value [5] was 20 mmHg and 15 mmHg. The “% Inhibition (angiotensin blockage)” value [6] was 53%, the “Average Change (increase in systolic blood pressure after AII)” value [6] was 20 mmHg and the “Change (increase in systolic blood pressure after AII), individual rat” value [6] was 25 mmHg and 15 mmHg. The “% Inhibition (angiotensin blockage)” value [7] was 41%, the “Average Change (increase in systolic blood pressure after AII)” value [7] was 25 mmHg and the “Change (increase in systolic blood pressure after AII), individual rat” value [7] was 25 mmHg. The “% Inhibition (angiotensin blockage)” value [8] was 63%, the “Average Change (increase in systolic blood pressure after AII)” value [8] was 17.5 mmHg and the “Change (increase in systolic blood pressure after AII), individual rat” value [8] was 20 mmHg and 15 mmHg. The “% Inhibition (angiotensin blockage)” value [9] was 42%, the “Average Change (increase in systolic blood pressure after AII)” value [9] was 27.5 mmHg and the “Change (increase in systolic blood pressure after AII), individual rat” value [9] was 30 mmHg and 25 mmHg. For the same molecule, the “% Inhibition (angiotensin blockage)” value [10] was 37%, the “Average Change (increase in systolic blood pressure after AII)” value [10] was 30 mmHg and the “Change (increase in systolic blood pressure after AII), individual rat” value [10] was 30 mmHg. The “% Inhibition (angiotensin blockage)” value [11] was 42%, the “Average Change (increase in systolic blood pressure after AII)” value [11] was 27.5 mmHg and the “Change (increase in systolic blood pressure after AII), individual rat” value [11] was 30 mmHg and 25 mmHg. The “% Inhibition (angiotensin blockage)” value [12] was 37%, the “Average Change (increase in systolic blood pressure after AII)” value [12] was 30 mmHg and the “Change (increase in systolic blood pressure after AII), individual rat” value [12] was 25 mmHg and 35 mmHg. For the same molecule, the “% Inhibition (angiotensin blockage)” value [13] was 47%, the “Average Change (increase in systolic blood pressure after AII)” value [13] was 25 mmHg and the “Change (increase in systolic blood pressure after AII), individual rat” value [13] was 20 mmHg and 30 mmHg. The “% Inhibition (angiotensin blockage)” value [14] was 42%, the “Average Change (increase in systolic blood pressure after AII)” value [14] was 27.5 mmHg and the “Change (increase in systolic blood pressure after AII), individual rat” value [14] was 20 mmHg and 35 mmHg. For the same molecule, the “Response After AII (systolic blood pressure), individual rat” value (“Response After AII” below) (after AII 0.05 mcg/kg IV, 30 min post dose) was 240 mmHg and 225 mmHg, the “Response After AII” value (after AII 0.05 mcg/kg IV, 60 min post dose) was 230 mmHg and the “Response After AII” value (after AII 0.05 mcg/kg IV, 90 min post dose) was 215 mmHg and 225 mmHg. For the same molecule, the “Response After AII” value (after AII 0.05 mcg/kg IV, 120 min post dose) was 225 mmHg, the “Response After AII” value (after AII 0.05 mcg/kg IV, 180 min post dose) was 230 mmHg and 225 mmHg and the “Response After AII” value (after AII 0.05 mcg/kg IV, 240 min post dose) was 235 mmHg and 220 mmHg. For the same molecule, the “Response After AII” value (after AII 0.05 mcg/kg IV, 300 min post dose) was 240 mmHg and 230 mmHg, the “Response After AII” value (after AII 0.1 mcg/kg IV, 30 min post dose) was 245 mmHg and 240 mmHg and the “Response After AII” value (after AII 0.1 mcg/kg IV, 60 min post dose) was 230 mmHg and 250 mmHg. For the same molecule, the “Response After AII” value (after AII 0.1 mcg/kg IV, 90 min post dose) was 235 mmHg and 240 mmHg, the “Response After AII” value (after AII 0.1 mcg/kg IV, 120 min post dose) was 230 mmHg and 235 mmHg and the “Response After AII” value (after AII 0.1 mcg/kg IV, 180 min post dose) was 240 mmHg and 250 mmHg. For the same molecule, the “Response After AII” value (after AII 0.1 mcg/kg IV, 240 min post dose) was 245 mmHg and 240 mmHg, the “Response After AII” value (after AII 0.1 mcg/kg IV, 300 min post dose) was 245 mmHg and the “Control Before AII (systolic blood pressure), individual rat” value (“Control Before AII” for short) (before AII 0.05 mcg/kg IV, 30 min post dose) was 230 mmHg and 220 mmHg. The “Control Before AII” value (before AII 0.05 mcg/kg IV, 60 min post dose) was 210 mmHg and 215 mmHg, the “Control Before AII” value (before AII 0.05 mcg/kg IV, 90 min post dose) was 200 mmHg and 210 mmHg and the “Control Before AII” value (before AII 0.05 mcg/kg IV, 120 min post dose) was 205 mmHg and 210 mmHg. The “Control Before AII” value (before AII 0.05 mcg/kg IV, 180 min post dose) was 210 mmHg, the “Control Before AII” value (before AII 0.05 mcg/kg IV, 240 min post dose) was 210 mmHg and 205 mmHg and the “Control Before AII” value (before AII 0.05 mcg/kg IV, 300 min post dose) was 215 mmHg and 205 mmHg. The “Control Before AII” value (before AII 0.1 mcg/kg IV, 30 min post dose) was 225 mmHg, the “Control Before AII” value (before AII 0.1 mcg/kg IV, 60 min post dose) was 200 mmHg and 225 mmHg and the “Control Before AII” value (before AII 0.1 mcg/kg IV, 90 min post dose) was 205 mmHg and 210 mmHg. For the same molecule, the “Control Before AII” value (before AII 0.1 mcg/kg IV, 120 min post dose) was 200 mmHg and 210 mmHg, the “Control Before AII” value (before AII 0.1 mcg/kg IV, 180 min post dose) was 215 mmHg and the “Control Before AII” value (before AII 0.1 mcg/kg IV, 240 min post dose) was 225 mmHg and 210 mmHg. For the same molecule, the “Control Before AII” value (before AII 0.1 mcg/kg IV, 300 min post dose) was 225 mmHg and 210 mmHg.
